Measured values as given in BigSolDB 2.1.

COc1c(C(C)(C)C)cc([N+](=O)[O-])c(C)c1[N+](=O)[O-]
solubility (mole fraction)
Conditions | 278.15 K | 283.15 K | 288.15 K | 293.15 K | 298.15 K | 303.15 K | 308.15 K | 313.15 K | 318.15 K
in DMAc | 0.121 | 0.14 | 0.162 | 0.189 | 0.221 | 0.258 | 0.3 | 0.347 | 0.4
in DMF | 0.0875 | 0.107 | 0.127 | 0.154 | 0.183 | 0.221 | 0.263 | 0.31 | 0.372
in THF | 0.157 | 0.177 | 0.203 | 0.231 | 0.264 | 0.302 | 0.342 | 0.391 | 0.446
in acetonitrile | 0.0355 | 0.0456 | 0.0608 | 0.0819 | 0.111 | 0.146 | 0.189 | 0.25 | 0.33
in ethanol | 0.00359 | 0.0046 | 0.00594 | 0.00791 | 0.00992 | 0.0131 | 0.0164 | 0.0215 | 0.0276
in methanol | 0.00266 | 0.00351 | 0.00447 | 0.00561 | 0.00719 | 0.00897 | 0.0112 | 0.0144 | 0.018
in n-butanol | 0.00491 | 0.00673 | 0.0088 | 0.0111 | 0.0143 | 0.0192 | 0.0241 | 0.0308 | 0.0405
in n-propanol | 0.00367 | 0.00463 | 0.00591 | 0.00789 | 0.0105 | 0.0137 | 0.0182 | 0.024 | 0.0311
